The record followed here is patent publication US4088757A, “4'Alpha- and 4'beta-amino-4'-desoxyoleandrins, and pharmaceutical composition containing same” (Beiersdorf Aktiengesellschaft, priority 1976, dated 1978).

The format of data set [1] is in vivo. As to conditions: cat, intravenous; for preferential route of elimination (in words): tritium-marked drug; for Biliary Elimination: tritium-marked drug in feces; for Biliary Elimination / Renal Elimination: % of activity originally injected; for Renal Elimination: tritium-marked drug in urine. As to the method:
1. The elimination rate of both drugs in the cat was tested by intravenously injecting a fixed amount of the drugs into the cat and recording the amount of tritium-marked drug appearing in the urine and feces. The results are stated as a percentage of the activity of the tritium-marked glycoside originally injected.

In data set [2] the test system is papillary muscle of the guinea pig. Briefly: inotropic effect on the papillary muscle of the guinea pig in vitro. The conditions noted are these: Cavia porcellus, 40% ethanol and 60% water mixture, read-out: ED50 (amount of drug necessary to increase the contractile force of the muscle by 50%). As to the method:
2. The inotropic effect of both drugs was tested on the papillary muscle of the guinea pig in vitro. The muscle was connected to a recording device and then placed in a bath of 0.1% solution of the drug to be tested in a mixture of 40% ethanol and 60% water. This solution was gradually diluted with water and a dosage versus contraction graph plotted. The amount of drug necessary to increase the contractile force of the muscle by 50% (ED50) was then calculated.

In brackets after ≈: the same amount, converted by molar mass.

On to `C[C@H]1O[C@@H](O[C@H]2[C@@H](O)C[C@H](O[C@H]3[C@@H](O)C[C@H](O[C@H]4CC[C@@]5(C)[C@H](CC[C@@H]6[C@@H]5C[C@@H](O)[C@]5(C)[C@@H](C7=CC(=O)OC7)CC[C@]65O)C4)O[C@@H]3C)O[C@@H]2C)C[C@H](O)[C@@H]1O` [digoxin], for which, in data set [1], the “preferential route of elimination (in words)” value was “preferentially eliminated by the renal system”, the “Biliary Elimination” value amounted to 4.7% and the “Renal Elimination” value is 6.3%. In addition, the EC50 in data set [2] came out at 1.1 µg/mL (≈ 1.41 µM).
In the case of `COC1CC(OC2CCC3(C)C(CCC4C3CCC3(C)C(C5=CC(=O)OC5)C(OC(C)=O)CC43O)C2)OC(C)C1N` (centres unmarked) [4'-amino-4'-desoxy-oleandrin], in data set [1], the “preferential route of elimination (in words)” value was “preferentially eliminated by the biliary system”, the “Biliary Elimination” value stood at 11.1% and the “Renal Elimination” value stood at 2.5%. In addition, the EC50 in data set [2] came to 0.13 µg/mL (≈ 0.226 µM).
